Each structure is given as a SMILES string.

The subject of experiment [1] is B. stricta ovules. Briefly: In vivo floral dip in epiBL solution, dyad formation. The following applies: flower buds dipped 3 h in 10 μmol L−1 epiBL; controls 7%. How it is done: (§1) FIG. 40 Frequencies of B. stricta ovules (dyads and tetrads) that were undergoing dyad formation (sexual or diplosporous) at the end of pistil treatment as affected by i) a 3 h in vivo floral dip in solutions containing epibrassinolide (epiBL) or ii) culturing of pistils in epiBL-containing media with in vitro culture of pistils initiated when pistils were in the 1-I or the 2-III to 2-IV stages. Numbers of correctly-staged ovules (dyads plus tetrads) per data point averaged 53 and ranged from 27-82.
(§2) epiBL is the naturally occurring and most biologically active form of BR. Applications of epiBL to pistils of sexual B. stricta, in vivo or in vitro, caused MMC to abort meiosis and instead produce dyads (FIG. 40). […] This induced 31% dyad formation, compared to 7% for the controls (a frequency often observed in sexual plants where they represent an intermediate stage of sexual meiosis). A similar dyad induction frequency (29%) was obtained by culturing 1-I to 2-II staged B. stricta pistils on a 0.1 μmol L−1 epiBL medium for 2 d (FIG. 40).

The subject of experiment [2] is B. stricta ovules. Briefly: In vitro culture of pistils on epiBL-containing medium, dyad formation. The format is cell-based. The protocol:
as §1, §2

The subject of experiment [3] is Arabidopsis ovules. Briefly: Topical application of BR or glucose to intact pistils, apomeiosis induction. The format is in vivo, Arabidopsis thaliana. The protocol:
Most of the functional megaspores from these treatments originated by Taraxacum-type diplospory (FIG. 42) with frequent subepidermal layer of cells with or without a parietal cell. A few cases of Antennaria-type diplospory were also observed (FIG. 43).
(§3) Cytological Analyses. Arabidopsis, Drummond's rockcress and cowpea floral buds were fixed in FAA (v/v: 3.7% formaldehyde, 5% acetic acid, 50% ethanol) for 48 h and cleared in 2:1 benzyl benzoate dibutyl phthalate (BBDP) (80): 1) 70% EtOH, 30 min; 95% EtOH, ≥4 h (2×); 95% EtOH:BBDP (2:1), 2 h; 95% EtOH:BBDP (1:2), 4 h; BBDP, 4 h; BBDP, overnight. Cleared pistils were mounted (up to 16 per slide) and measured from the pedicel base to the top of the stigma. […] DAPI fluorescence was detected with a Zeiss LSM 510 confocal microscope with excitation at 408 nm, dichroic reflector at HFT488 nm and detection at 450-650 nm. […]
Presence of the following ovule characteristics were recorded: MMCs, Antennaria type diplosporous 1-2 nucleate ES, sexual or Taraxacum type diplosporous dyads, sexual tetrads, sexual or Taraxacum type diplosporous 1-2 nucleate ES, AI and AES. […]
For topical applications, sepals of floral buds were separated, and pistil lengths were measured using a dissecting microscope. […]

The test system of experiment [4] is Arabidopsis ovules. Briefly: Pistil culture experiments with 5-azaC, BR (epiBL), DTBA, H2O2 and sugars, meiosis to apomeiosis. The following applies: BR alone. The format is cell-based, Arabidopsis thaliana. The text has this:
(§4) To address redox instability, pistils were exposed to the antioxidant DTBA, an antioxidant that protects thiol groups in proteins from oxidization. To address bioenergetic stress, pistils were exposed to sugars. Glucose signaling is one of the most ancient and central signaling pathways in animals and plants and is involved in gene expression, primary and secondary metabolism, and regulation of growth and development (98). In Arabidopsis, rates of glycolysis and mitochondrial bioenergetics are sensed by TOR, which then control root meristem activation (18). If sufficient sugar is supplied, TOR should be activated. Active TOR protects BZR1 and other important BR-regulated enzymes from degradation, and this leads to plant growth (25). Factorial experiments were designed to test the effects of sucrose, glucose, epiBL, DTBA and 5-azaC on apomixis induction. These were designed for each of three sexual species, B. stricta, arabidopsis and cowpea. The experiments were performed and ratios of apomeiosis to meiosis were documented.
Two factorial experiments were conducted using immature arabidopsis pistils. In the first experiment, no 5-azaC, 5-azaC in the pretreatment only, or 5-azaC in both the pretreatment and the tissue culture medium were tested.
Cytological Analyses. Arabidopsis, Drummond's rockcress and cowpea floral buds were fixed in FAA (v/v: 3.7% formaldehyde, 5% acetic acid, 50% ethanol) for 48 h and cleared in 2:1 benzyl benzoate dibutyl phthalate (BBDP) (80): 1) 70% EtOH, 30 min; 95% EtOH, ≥4 h (2×); 95% EtOH:BBDP (2:1), 2 h; 95% EtOH:BBDP (1:2), 4 h; BBDP, 4 h; BBDP, overnight. Cleared pistils were mounted (up to 16 per slide) and measured from the pedicel base to the top of the stigma. Ovule development stages were studied using a BX53 microscope equipped with differential interference contrast optics and a MicroFire 599809 camera (Olympus, Center Valley, Pa., USA). For chromosome staining, pistils were soaked in 95% ethanol that contained 0.1 mg L^−1 4′,6-diamidino-2-phenylindole (DAPI). Callose was stained by soaking DAPI stained pistils in aqueous aniline blue (Millipore Sigma, Darmstadt, Germany) (124). DAPI fluorescence was detected with a Zeiss LSM 510 confocal microscope with excitation at 408 nm, dichroic reflector at HFT488 nm and detection at 450-650 nm. Callose was distinguished from DAPI by detection at 550-650 nm.
Presence of the following ovule characteristics were recorded: MMCs, Antennaria type diplosporous 1-2 nucleate ES, sexual or Taraxacum type diplosporous dyads, sexual tetrads, sexual or Taraxacum type diplosporous 1-2 nucleate ES, AI and AES. Developmental stages for the majority of ovules per pistil were recorded, and pistil lengths for the following stages (125) were recorded: 1-II, ovule meristems protruding from placentae (precedes MMC formation); 2-IV, meiosis; 3-III, vacuole in immature ES beginning to appear; 4-VI, nuclear divisions in endosperm underway. To determine average timing of meiosis onset, pistils primarily containing premeiotic (2-III) ovules were located under low light conditions 1 h before the lights came on in the morning. Corresponding sepals were marked with a small point permanent marker. Pistils were then randomly harvested for analysis when the lights came on and 3 h thereafter.
Pistils were aseptically excised, but not disinfested, at the early pre-MMC to MMC stages and incubated in vitro. The basal culture medium for arabidopsis and Drummond's rockcress was MS (126) (Caisson Laboratories, Inc., Smithfield, UT USA) with 20 g L^−1 sucrose or glucose and solidified with 1.45 g L^−1 Phytogel (MilliporeSigma).

Experiment [5] relates to B. stricta (Drummond's rockcress) ovules. Nature of the experiment: Pistil culture factorial experiment with sucrose, glucose, epiBL, DTBA and 5-azaC. The format is cell-based, Boechera stricta.
From the text: as §4
Both the carbohydrate variable and the other components variable were highly significant (P<0.001). Additionally, three ovules from the sucrose plus epiBL treatment (epiBL in the pretreatment and in the medium) had formed aposporous embryo sacs (AES). Also, two ovules, one from the sucrose-epiBL-epiBL treatment and one from the glucose-DTBA-DTBA treatment, had formed Antennaria-type diplosporous embryo sacs (FIGS. 48A-48H).
as §3
Presence of the following ovule characteristics were recorded: MMCs, Antennaria type diplosporous 1-2 nucleate ES, sexual or Taraxacum type diplosporous dyads, sexual tetrads, sexual or Taraxacum type diplosporous 1-2 nucleate ES, AI and AES. Developmental stages for the majority of ovules per pistil were recorded, and pistil lengths for the following stages (125) were recorded: 1-II, ovule meristems protruding from placentae (precedes MMC formation); 2-IV, meiosis; 3-III, vacuole in immature ES beginning to appear; 4-VI, nuclear divisions in endosperm underway. […]

In a further experiment the test system is Arabidopsis embryo sacs. Briefly: Induction of parthenogenesis and autonomous endosperm formation in pistils. The format is cell-based. The following applies: 2 μM BR or 50 mM glucose prior to central cell callose deposition. The protocol:
(§5) Scale bars: 50 μm (FIG. 51A), 20 μm (FIGS. 51B-51E).
FIG. 52 Parthenogenesis in putatively diploid Arabidopsis embryo sacs induced by treatment of pistils in emasculated flowers with 2 μM BR or 50 mM glucose. To prevent fertilization, stigmas of pistils were clipped while anthers were immature. These pistils were also treated premeiotically with BR and glucose.
Functional apomixis requires not only apomeiosis but also parthenogenesis and, in plants, endosperm formation.

The subject of a further experiment is Arabidopsis anthers. Briefly: Anthers cultured in vitro with epiBL, unreduced pollen microspores. The note with it: 0.1 μM epiBL on 2% sucrose medium for 24 h. The format is cell-based.
From the text: as §5

On to `CC(C)[C@@H](C)[C@@H](O)[C@H](O)[C@@H](C)[C@H]1CC[C@H]2[C@@H]3COC(=O)[C@H]4C[C@H](O)[C@H](O)C[C@]4(C)[C@H]3CC[C@]12C` [epiBL, epibrassinolide], for which the dyad formation in the experiment with B. stricta ovules [1] came out at 31%. In the experiment on B. stricta ovules [2] (1-I to 2-II staged pistils on 0.1 μmol L−1 epiBL medium for 2 d), this compound showed a dyad induction frequency of 29%. Also, in the experiment with B. stricta ovules [2] (epiBL treatments), the “unreduced embryo sacs forming from epiBL-induced dyads” value is “only rarely observed”. The “ratios of observed dyads” value in the experiment with B. stricta ovules [2] (epiBL treatments (in vivo or in vitro)) was determined as 30%. For the same compound, in the experiment on Arabidopsis ovules [3] (intact pistils treated with BR or glucose solutions (2 μM BR or 50 mM glucose)), the apomeiotic dyad formation entry was “induced high frequency apomeiotic dyad formation”. Moreover, the Taraxacum-type diplospory induction entry with Arabidopsis ovules [3] (topical applications 24 h before or immediately before meiosis) was “induced Taraxacum-type diplospory”. In the experiment on Arabidopsis ovules [4], the AES formation entry is “Low levels” and the “ovules with meiosis stopped, MMC undergoing Taraxacum type dyad or ES formation” value is given as 45%. For the same compound, the “number of ovules that formed aposporous embryo sacs (AES)” value in experiment [5] (sucrose plus epiBL, epiBL in the pretreatment and in the medium) was “three”. Moreover, the “number of ovules that formed Antennaria-type diplosporous embryo sacs” value in experiment [5] (sucrose-epiBL-epiBL treatment) is recorded as “one”. In addition, in the experiment on Arabidopsis embryo sacs, the “callose deposition, parthenogenesis and autonomous endosperm formation” value is “prevented stress-associated callose deposition and activated parthenogenesis and autonomous endosperm formation”. Moreover, the unreduced pollen microspores entry in the experiment with Arabidopsis anthers is “Unreduced pollen dyads of microspores”.
